Reference: patent US20220259235A1, “EGFR Inhibitor, Composition, and Preparation Method Therefor” (BETTA PHARMACEUTICALS CO., LTD, priority 2019, published 2022)

Experiments:
EGFR Δ19del/T790M/C797S = EGFR Δ19del/T790M/C797S (Homo sapiens, UniProt P00533, T790M/C797S, form not given); assay: EGFR Δ19del/T790M/C797S kinase test (mobility shift, Caliper EZ Reader); type: biochemical; conditions: kinase enzymatic activity
Method: Mobility variation analysis was performed to determine the affinity of the compound for EGFRΔ19del/T790M/C797S. The enzymatic reaction scheme is as follows:
1. Prepare 1* kinase buffer as follows:
2. Preparation of compound concentration gradient: The test compound was tested with an initial concentration of 3000 nM or 100 nM, diluted in a 384 source plate to a 100% DMSO solution with 100-fold final concentration, and the compound is 3-fold diluted with Precision to 10 concentrations. A dispenser Echo 550 was used to transfer 250 nL 100-fold final concentration of the compound to the target plate OptiPlate-384F.
3. Prepare 2.5-fold final concentration of kinase solution with 1×Kinase buffer;
4. Add 10 μL of 2.5-fold final concentration of kinase solution to the compound well and the positive control well; add 10 μL of 1×Kinase buffer to the negative control well.
5. Centrifuge at 1000 rpm for 30 seconds, shake the reaction plate for well mixation, and then incubate at room temperature for 10 minutes.
6. Prepare a mixture of ATP and Kinase substrate at 5/3-fold final concentration with 1×Kinase buffer.
7. Add 15 μL mixture of 5/3-fold final concentration of ATP and substrate to start reaction.
8. Centrifuge the 384-well plate at 1000 rpm for 30 seconds, shake it well and then incubate it at room temperature for corresponding time.
9. Add 30 μL of stop detection solution to stop the kinase reaction, centrifuge at 1000 rpm for 30 seconds, shake it well.
10. Read conversion rate with Caliper EZ Reader.
% Inhibition=((Conversion%_max−Conversion%_sample)/(Conversion%_max−Conversion%_min))*100
Wherein: Conversion%_sample is the sample conversion rate reading; Conversion%_min: Mean value of negative control wells, representing the conversion rate reading of wells without enzymatic activity; Conversion%_max: Mean value of positive control wells, representing the conversion rate reading of wells without compound inhibition.
The dose-effect curve was fitted with concentration log value as X-axis and percentage inhibition rate as Y-axis. Log (inhibitor) vs. Response—Variable Slope of GraphPad Prism 5 was used to fit the dose-effect curve to obtain IC50 value of enzymatic activity for each compound.
The calculation formula is as Y=Bottom (Top−Bottom)/(1+10^((LogIC50−X)*HillSlope)).
As illustrated in examples, IC50 value is within the following range for the compound of the present invention: “A” represents “IC50≤1nM”; “B” represents “1 nM<IC50≤100nM”.

Ba/F3-L858R/T790M/C797S = Ba/F3-L858R/T790M/C797S (Homo sapiens, UniProt P00533, T790M/C797S/L858R, cells depend on it); assay: Ba/F3-L858R/T790M/C797S cell proliferation assay (CellTiter Glo, 72 h); type: cell-based; conditions: CTG, numeric values, read-out: BaF3 L858R/T790M/C797S IC50
Chain of Ba/F3-L858R/T790M/C797S (P00533 whole entry T790M/C797S/L858R): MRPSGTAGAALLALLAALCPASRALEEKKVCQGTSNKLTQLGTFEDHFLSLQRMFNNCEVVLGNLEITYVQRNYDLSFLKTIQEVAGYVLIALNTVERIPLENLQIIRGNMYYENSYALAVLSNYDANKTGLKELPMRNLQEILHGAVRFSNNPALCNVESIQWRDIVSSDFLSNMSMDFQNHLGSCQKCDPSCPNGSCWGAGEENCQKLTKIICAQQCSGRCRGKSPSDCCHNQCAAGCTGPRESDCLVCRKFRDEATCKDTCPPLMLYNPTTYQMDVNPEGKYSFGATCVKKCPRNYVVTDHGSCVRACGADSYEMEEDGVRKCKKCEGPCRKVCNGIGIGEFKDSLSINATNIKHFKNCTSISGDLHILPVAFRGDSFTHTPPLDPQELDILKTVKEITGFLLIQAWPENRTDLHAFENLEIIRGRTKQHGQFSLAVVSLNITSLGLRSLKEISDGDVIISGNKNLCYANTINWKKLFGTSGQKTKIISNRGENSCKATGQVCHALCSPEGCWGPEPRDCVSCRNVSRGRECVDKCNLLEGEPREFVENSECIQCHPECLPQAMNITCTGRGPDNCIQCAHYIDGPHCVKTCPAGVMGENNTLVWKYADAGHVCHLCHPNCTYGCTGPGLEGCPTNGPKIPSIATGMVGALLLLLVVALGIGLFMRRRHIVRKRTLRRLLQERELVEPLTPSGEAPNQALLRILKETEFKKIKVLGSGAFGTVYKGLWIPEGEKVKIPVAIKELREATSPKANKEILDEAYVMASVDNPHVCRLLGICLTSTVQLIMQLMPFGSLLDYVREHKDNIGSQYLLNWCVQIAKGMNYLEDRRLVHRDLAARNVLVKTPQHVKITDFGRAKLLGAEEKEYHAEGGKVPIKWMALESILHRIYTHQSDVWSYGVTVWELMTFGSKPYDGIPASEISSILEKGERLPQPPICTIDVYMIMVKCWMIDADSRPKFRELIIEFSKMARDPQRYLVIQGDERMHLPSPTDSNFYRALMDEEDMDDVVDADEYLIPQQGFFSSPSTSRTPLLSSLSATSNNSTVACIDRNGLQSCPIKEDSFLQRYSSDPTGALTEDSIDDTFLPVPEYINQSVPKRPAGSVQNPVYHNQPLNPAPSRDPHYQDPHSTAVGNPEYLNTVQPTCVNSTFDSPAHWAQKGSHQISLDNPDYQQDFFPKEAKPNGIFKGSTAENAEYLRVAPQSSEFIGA
Method: (§1) Cell line: Ba/F3 cells with stable overexpression of Δ19del/T790M/C797S or L858R/T790M/C797S mutant genes, named Ba/F3-Δ19del/T790M/C797S and Ba/F3-L858R/T790M/C797S, and A431 EGFR wild-type cell line.
(§2) RPMI 1640 and 10% FBS and 1% PS; _EM, 10% PBS and 1% PS
(§3) a) Dilute the test compound (20 mM stock solution) to 10 mM with 100% DMSO as the starting concentration, and then serially dilute 3 times with a “9+0” concentration in 96-well dilution plate (Cat #P-05525, Labcyte);
(§4) b) Dilute compound solution thereof to 1:100 in medium to prepare 10-fold working solution;
(§5) a) Centrifuge the growth cells in logarithmic phase at 1000 rpm for 5 minutes, resuspend the cells in culture medium, and then count the cells;
(§6) b) Inoculate the cells into a 96-well cell culture plate with a density of 2000 cells/well;
(§7) a) The compound prepared in Step 2 was added to a cell plate with 15 μL per well at final concentrations of 1000, 333, 111.1, 37, 12.3, 4.1, 1.4, 0.5, 0.2, and 0 nM. The final concentration of DMSO was 0.1%. The blank control well is with medium (0.1% DMSO).
(§8) b) Incubate cells in an incubatorother 72 hours;
(§9) a) Take out the 96-well cell culture plate and add 50 μl CTG reagent (CellTiter Glo kit, promega, Cat #G7573);
(§10) b) Shake the plate for 2 minutes and let cool at room temperature for 10 minutes,
(§11) c) Read luminous signal value with Perkin Elmer reader.
(§12) Analysis of Experimental Data
(§13) The data were analyzed by GraphPad Prism 6.0 software to obtain the fitting curve of compound activity.
(§14) Fining compound IC50 from nonlinear regression equation:
(§15) Y=Min+(Max−Min)/(1+10^((LogIC50−X)*slope));
(§16) X: Logarithm of compound concentration; Y: luminous signal
(§17) As illustrated in examples, IC50 value is within the following range for the compound of the present invention: “A” represents “IC50≤50 nM”; “B” represents “50 nM<IC50<100 nM”.

[1] = tested on: A431 EGFR wild-type cell line; assay: A431 EGFR wild-type cell proliferation assay (CellTiter Glo, 72 h); type: cell-based; conditions: Homo sapiens, A-431, CTG, read-out: A431 EGFR WT IC50
Method: as §1, §2, §3, §4, §5, §6, §7, §8, §9, §10, §11, §12, §13, §14, §15, §16, §17

Ba/F3-Δ19del/T790M/C797S = Ba/F3-Δ19del/T790M/C797S (Homo sapiens, UniProt P00533, T790M/C797S, cells depend on it, form not given); assay: Ba/F3-Δ19del/T790M/C797S cell proliferation assay (CellTiter Glo, 72 h); type: cell-based; conditions: CTG, numeric values, read-out: BaF3 Δ19del/T790M/C797S IC50
Chain of Ba/F3-Δ19del/T790M/C797S (P00533 with tags, fused parts or gaps DEL746-750/T790M/C797S, form open): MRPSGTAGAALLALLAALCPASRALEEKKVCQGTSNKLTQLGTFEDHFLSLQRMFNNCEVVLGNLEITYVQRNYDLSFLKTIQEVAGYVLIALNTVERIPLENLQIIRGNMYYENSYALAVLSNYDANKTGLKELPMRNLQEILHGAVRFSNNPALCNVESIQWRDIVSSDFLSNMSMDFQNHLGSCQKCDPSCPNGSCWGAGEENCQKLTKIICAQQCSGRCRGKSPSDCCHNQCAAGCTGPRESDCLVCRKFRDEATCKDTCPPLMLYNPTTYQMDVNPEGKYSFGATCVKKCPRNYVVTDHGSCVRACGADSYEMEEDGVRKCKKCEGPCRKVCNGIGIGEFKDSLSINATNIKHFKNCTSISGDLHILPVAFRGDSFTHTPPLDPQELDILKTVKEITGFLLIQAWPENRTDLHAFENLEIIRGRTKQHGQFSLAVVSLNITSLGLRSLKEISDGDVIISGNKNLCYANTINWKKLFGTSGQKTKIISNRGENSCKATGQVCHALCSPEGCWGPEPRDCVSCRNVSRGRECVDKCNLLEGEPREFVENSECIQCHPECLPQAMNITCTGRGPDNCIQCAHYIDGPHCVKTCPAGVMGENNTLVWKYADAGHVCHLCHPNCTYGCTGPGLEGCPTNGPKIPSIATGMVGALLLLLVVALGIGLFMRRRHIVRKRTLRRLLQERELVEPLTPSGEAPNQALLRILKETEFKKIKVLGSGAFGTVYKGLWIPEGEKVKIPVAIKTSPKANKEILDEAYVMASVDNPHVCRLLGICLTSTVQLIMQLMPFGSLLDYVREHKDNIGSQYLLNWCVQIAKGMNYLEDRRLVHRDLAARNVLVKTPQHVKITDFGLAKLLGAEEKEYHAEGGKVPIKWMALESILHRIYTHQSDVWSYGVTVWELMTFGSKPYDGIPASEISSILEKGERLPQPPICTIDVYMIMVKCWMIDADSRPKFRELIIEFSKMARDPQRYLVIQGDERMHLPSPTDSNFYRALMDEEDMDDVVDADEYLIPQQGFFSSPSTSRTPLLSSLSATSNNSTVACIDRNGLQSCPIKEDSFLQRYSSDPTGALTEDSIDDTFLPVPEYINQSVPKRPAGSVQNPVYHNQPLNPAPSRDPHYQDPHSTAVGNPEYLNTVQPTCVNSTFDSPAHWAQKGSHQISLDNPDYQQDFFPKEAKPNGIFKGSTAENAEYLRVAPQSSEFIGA
Method: as §1, §2, §3, §4, §5, §6, §7, §8, §9, §10, §11, §12, §13, §14, §15, §16, §17

[2] = Liver microsomal clearance test, human; type: in vitro ADME; conditions: Human liver microsomes, 0.5 mg/mL, NADPH
Method: (§18) Test 3 Liver Microsomal Clearance Test
(§19) 1. Prepare 0.5 mg/mL liver microsome diluent containing K-butter and MgCl2:
(§20) 2.1 Take 356 μL of the liver microsome diluent prepared above and add it to the preset wells of the incubation plate, the number of multiple wells n=1, mark it as the incubation plate.
(§21) 2.2 Take 4 μL of the positive control compound Verapamil (50 μM) and the working solution of the test compound (200 μM) into the above incubation plate containing 356 μL of liver microsome diluent, and mix well (The dilution solvent from the stock solution to the working solution is a mixed solvent of acetonitrile: methanol: water=1:1:2, and the final concentration of DMSO is ≤0.5%),
(§22) 2.3 Place the incubation plate in a 37° C. thermostatic oscillator (at shaking speed of 100 rpm) for pre-incubation with 10 min.
(§23) 2.4 Add 40 μL of 10 mM NADPH (add 40 μL of K-buffer to the wells without NADPH) to each reaction well to start the reaction and start timing.
(§24) 3. Sample collection and treatment:
(§25) 3.1 After adding NADPH to start the reaction, immediately take out 50 μL of the sample and add it to the precipitation plate pre-added with 400 μL of stop solution, and shake on an oscillator at 600 rpm for 5 min at room temperature as a 0 min sample.
(§26) 3.2 At the predetermined time points of 5 min, 15 min and 45 min, take out 50 μL of sample from the incubation plate and add it to the precipitation plate. The subsequent steps were the same as the treatment of 0 min sample. 3.3 After balancing, centrifuge above precipitation plate at 3200 rpm for 10 min at 4° C.
(§27) 3.4 Take 50 μL of the supernatant after centrifugation and add it to pre-added 20% acetonitrile water at appropriate proportion, shake on an oscillator at 600 rpm for 2 min at room temperature, mix well, and put it into the LC-MS/MS sampler for sample injection.
as §12
1. […]

[3] = Liver microsomal clearance test, dog; type: in vitro ADME; conditions: Dog liver microsomes, 0.5 mg/mL, NADPH
Method: as §18, §19, §20, §21, §22, §23, §24, §25, §26, §27, §12
1. […]

[4] = Liver microsomal clearance test, monkey; type: in vitro ADME; conditions: Monkey liver microsomes, 0.5 mg/mL, NADPH
Method: as §18, §19, §20, §21, §22, §23, §24, §25, §26, §27, §12
1. […]

[5] = Liver microsomal clearance test, rat; type: in vitro ADME; conditions: Rat liver microsomes, 0.5 mg/mL, NADPH
Method: as §18, §19, §20, §21, §22, §23, §24, §25, §26, §27, §12
1. […]

[6] = Liver microsomal clearance test, mice; type: in vitro ADME; conditions: Mice liver microsomes, 0.5 mg/mL, NADPH
Method: as §18, §19, §20, §21, §22, §23, §24, §25, §26, §27, §12
1. […]

Chain of EGFR Δ19del/T790M/C797S (P00533 with tags, fused parts or gaps DEL746-750/T790M/C797S, form open): as above

COc1cc(N2CCN(C3CCCC3)CC2)c(-c2cnn(C)c2)cc1Nc1ncc(Br)c(Nc2ccc(C)c(C)c2P(C)(C)=O)n1 [Compound 26, (6-((5-Bromo-2-((4-(4-cyclopentylpiperazine-1-yl)-2-methoxy-5-(1-methyl-1H-pyrazole-4-yl)phenyl)amino)pyrimidin-4-yl)amino)-2,3-dimethylphenyl)dimethylphoshine oxide]
IC50 (EGFR Δ19del/T790M/C797S; numeric values): 0.2 nM
GI50 (Ba/F3-L858R/T790M/C797S): 2.8 nM
IC50 [1]: 241 nM
GI50 (Ba/F3-Δ19del/T790M/C797S): 4.6 nM

COc1cc(N2CCOCC2)c(-c2cnn(C)c2)cc1Nc1ncc(Cl)c(Nc2ccc3nccnc3c2P(C)(C)=O)n1 [Compound 9]
IC50 (EGFR Δ19del/T790M/C797S; numeric values): 0.3 nM
GI50 (Ba/F3-L858R/T790M/C797S): 16.8 nM
IC50 [1]: 252 nM
GI50 (Ba/F3-Δ19del/T790M/C797S): 8 nM

CCn1cc(-c2cc(Nc3ncc(Br)c(Nc4ccc(C)c(C)c4P(C)(C)=O)n3)c(OC)cc2N2CCC(N3CCN(C)CC3)CC2)cn1 [Compound 22, (6-((5-Bromo-2-((5-(1-ethyl-1h-pyrazol-4-yl)-2methoxy-4-(4-(4-methylpiperazine-1-yl)piperidin-1-yl)phenyl)amino)pyrimidine-4-yl)amino)-2,3-dimethylphenyl)dimethylphosphine oxide]
IC50 (EGFR Δ19del/T790M/C797S; numeric values): 4.2 nM
GI50 (Ba/F3-L858R/T790M/C797S): 31.1 nM
IC50 [1]: 3260 nM
GI50 (Ba/F3-Δ19del/T790M/C797S): 24.6 nM

COc1cc(N2CCC(N3CCCCC3)CC2)c(-c2cnn(C)c2)cc1Nc1ncc(Cl)c(Nc2ccc3nccnc3c2P(C)(C)=O)n1 [Compound 5, (6-((2-((4-([1,4′-Dipiperidine]-1′-yl)-2-methoxy-5-(1-methyl-1H-pyrazole-4-yl)phenyl)amino)-5-chloropyrimidin-4-yl)amino)quinoxalin-5-yl)dimethylphosphine oxide]
Instrinsic clearance of liver microsomal protein, CLint [2]: 15.4 μL/min/mg proteins
IC50 (EGFR Δ19del/T790M/C797S; class symbols): ≤ 1 nM
Instrinsic clearance of liver microsomal protein, CLint [3]: 25.8 μL/min/mg proteins
Instrinsic clearance of liver microsomal protein, CLint [4]: 43.2 μL/min/mg proteins
Instrinsic clearance of liver microsomal protein, CLint [5]: 0.8 μL/min/mg proteins
GI50 (Ba/F3-L858R/T790M/C797S): 6.5 nM
IC50 [1]: 114 nM
Instrinsic clearance of liver microsomal protein, CLint [6]: 11.2 μL/min/mg proteins
GI50 (Ba/F3-Δ19del/T790M/C797S): 3 nM

CCn1cc(-c2cc(Nc3ncc(Br)c(Nc4ccc(C)c(C)c4P(C)(C)=O)n3)c(OC)cc2N2CCC(N3CCCCC3)CC2)cn1 [Compound 20]
IC50 (EGFR Δ19del/T790M/C797S; numeric values): 0.2 nM
GI50 (Ba/F3-L858R/T790M/C797S): 0.4 nM
IC50 [1]: 152 nM
GI50 (Ba/F3-Δ19del/T790M/C797S): 0.7 nM

COc1cc(N2CCC(N3CCN(C)CC3)CC2)c(-c2cnn(C)c2)cc1Nc1ncc(Cl)c(Nc2ccc3nc(C4CC4)ccc3c2P(C)(C)=O)n1 [Compound 28, (6-((5-Chloro-2-((2-methoxy-5-(1-methyl-1H-pyrazol-4-yl)-4-(4-(4-methylpiperazine-1-yl)piperidine-1-yl)phenyl)amino)pyrimidin-4-yl)amino)-2-cyclopropylquinolin-5-yl)dimethylphosphine oxide]
IC50 (EGFR Δ19del/T790M/C797S; numeric values): 0.31 nM
GI50 (Ba/F3-L858R/T790M/C797S): 6.6 nM
IC50 [1]: 201 nM
GI50 (Ba/F3-Δ19del/T790M/C797S): 1 nM

COc1cc(N2CCC(N(C)C)CC2)c(-c2cn[nH]c2)cc1Nc1ncc(Cl)c(Nc2ccc3nccnc3c2P(C)(C)=O)n1 [Compound 3, (6-((5-Chloro-2-((4-(4-(dimethylamino)piperidin-1-yl)-2-methoxy-5-(1H-pyrazol-4-yl)benzene)amino)pyrimidin-4-yl)amino)quinoxalin-5-yl)dimethylphosphine oxide]
IC50 (EGFR Δ19del/T790M/C797S; numeric values): 0.3 nM
GI50 (Ba/F3-L858R/T790M/C797S): 60.4 nM
IC50 [1]: 571 nM
GI50 (Ba/F3-Δ19del/T790M/C797S): 60.4 nM

COc1cc(N2CCC(N3CCN(C)CC3)CC2)c(-c2cnn(C(F)F)c2)cc1Nc1ncc(Br)c(Nc2ccc3nccnc3c2P(C)(C)=O)n1 [Compound 17]
IC50 (EGFR Δ19del/T790M/C797S; numeric values): 0.3 nM
GI50 (Ba/F3-L858R/T790M/C797S): 3.8 nM
IC50 [1]: 120 nM
GI50 (Ba/F3-Δ19del/T790M/C797S): 3.5 nM
